The target of one assay is T1, HIV-1 RT (Human immunodeficiency virus type 1 group M subtype B, UniProt P03366).
T1 construct: made in house
Kind of assay: HIV-1 RT inhibition with recombinant DNA-derived enzyme, poly(rA)·oligo(dT)10 template/primer, 3H-TTP incorporation. It is filed as biochemical. As for the experimental part: Compounds of the present invention were also examined for their ability to inhibit HIV-1 RT using recombinant DNA-derived enzyme (S.F.J. Le Grice and F. Gruninger-Leitch, European Journal of Biochemistry 187:307-314 (1990)) in […] volume assay mixtures. Mixtures contained 50mM Tris-HCl (pH 8.0), 25mM KCl, 4mM MgCl₂, 5mM dithiothreitol (DTT), 0.05% Triton X-100, […] ³H-TTP (2Ci/mmol), 1mg poly(rA)·oligo(dT)₁₀ (20:1) as template/primer, test compound at the desired concentration, and an appropriate quantity of HIV RT, usually 0.01 to 0.1mg. The assay mixtures were incubated at 37°C for 10 minutes and the reactions were stopped by the addition of 10% trichloroacetic acid (TCA). Yeast RNA ([…] per reaction) was added and the reaction products were precipitated at 4°C for 30 minutes. TCA-precipitated material was collected by filtration and the bound radioactivity determined by counting using a liquid scintillation counter. The concentration of compound required to inhibit the activity of HIV-RT by fifty percent (IC₅₀) was determined from a multiple dose-effect analysis program (J. Chou and I. C. Chou, Dose Effect Analysis with Microcomputers, Elsevier Sciences Publishers, Amsterdam 1987).

The next assay concerns HIV-1 NIT strain. Kind of assay: anti-HIV activity test: reduction of immuno-fluorescent positive (viral antigen) cells in infected CD4+ CEM cells. Type of assay: cell-based. The conditions noted are these: Human immunodeficiency virus 1, CCRF-CEM, 96 h, concentration which reduces the number of immuno-fluorescent positive cells by 50%, MOI 1, four days after infection, read-out: IC₅₀. On the procedure: The compounds I were tested for the inhibition of HIV-cytopathic effect and the reduction of cell-associated viral antigens in an experiment run as follows:
High titer virus stocks (HIV-1 NIT strain) were grown in CD₄+ CR10 cells in RMPI-1640 media (Gibco Laboratories) supplemented with 10% fetal calf serum and 0.1 mg/ml Gentamicin. The collected media were filtered and the virus isolates were concentrated 100 fold and stored at -80°C. CD₄+ CEM cells, propagated in the same medium, were incubated for 60 minutes at 37°C with diluted stock virus at multiplicity of infection (MOI) equal to 1. Cells were washed with phosphate buffered saline and resuspended in the medium at 2 x 10⁵ cells/ml. Various quantities of the test compounds in DMSO were added. Four days after infection, the number of live cells were counted by trypan blue exclusion (Proc. Natl. Acad. Sci. 83, 1986, 1911). At the same time, aliquots of cells were fixed with acetone and stained with antibodies from AIDS patients, followed by a second staining with fluorescein-conjugated goat anti-human IgG (Cappel). Cells stained with the fluorescent antibody were counted using a fluorescence microscope and the results were expressed as percentage of the total number of cells counted (J. Med. Virol. 19, 1986, 325).
The results of this anti-HIV activity test, expressed in IC₅₀ (µM), i.e. the concentration of the test compound which reduces the number of immuno-fluorescent positive cells by 50%, are given in Table I below.

The test system of the next assay is HIV-TAT. Kind of assay: anti-HIV-TAT assay: SeAP reporter under HIV-LTR versus RSV-LTR in transfected COS cells. It is filed as cell-based. The conditions noted are these: 1-50 µM, specific inhibition of SeAP under HIV-LTR minus RSV-LTR, 48 hours after addition, average of at least three tests, grades not defined. On the procedure: The compounds of formula I were also tested for anti-HIV-TAT activity in an assay comprising the following steps: • (a) putting both the expression of the Secreted Alkaline Phosphatase (SeAP) gene and the viral transactivator TAT gene under the control of the HIV promoter LTR responsive to the action of the HIV transactivator TAT; • (b) transfecting cultured mammalian cells with plasmids which contain the gene constructs of (a) above and cause cellular production of the transactivating factor TAT and SeAP; • (c) adding the agent to be tested, here the compounds of formula I; and determining the amount of SeAP produced, by measuring SeAP enzymatic activity, whereby inhibition of SeAP production correlates with the anti-TAT inhibition activity.
In this assay, the inhibition of SeAP positively correlates with anti-TAT activity. The greater the ability of an agent to inhibit SeAP, the greater is its anti-TAT activity.
Specifically, with respect to the results reported below, the anti-HIV-TAT assay was run as follows:
At 24 hours post transfection 1, 10, 25 and 50 µM of a test compound of formula I was added to the culture media of COS cells transfected with two plasmids, one containing the reporter gene which codes for SeAP under control of HIV-LTR, and the other containing the HIV-TAT gene also under control of HIV-LTR. The alkaline phosphatase activity of the media was assayed 48 hours after addition of test compound with a colorimetric assay using p-nitrophenylphosphate as the substrate.
The anti-HIV-TAT activities of the test compounds were determined by measuring the amount of alkaline phosphatase in the supernatant media of cultures of cells in which SeAP gene expression was under the control of the HIV LTR promoter. The specific inhibitory activities of the test compounds were calculated according to the formula: 100[(1-A/B)-(1-C/D)] [formula] where A and B are the alkaline phosphatase activites produced by HIV-LTR/SeAP in the presence and absence, respectively, of test compound, and C and D are the alkaline phosphatase activities produced by RSV-LTR/SeAP in the presence and absence, respectively, of test compound. The concentrations tested ranged from 1-50 µM. The results provided are the average of at least three tests. The test compound was added 24 hours after cells were transfected with the plasmids when SeAP specific mRNA and protein were already present and the protein was very stable. […]

The mark [1] stands for this setting: recombinant HIV-1 RT, 37°C, 10 minutes, read-out: IC₅₀.

Where two headings read alike, the source gives them in different places.

`OC1CCN(C2=Nc3ccc(Cl)cc3C(c3ccc[nH]3)=NC2)C1` (racemic) [3-OH-1-pyrrolidinyl, rac-1-[7-chloro-5-(1H-pyrrol-2-yl)-3H-1,4-benzodiazepin-2-yl]-3-pyrrolidinol]: the IC50 at HIV-1 RT (setting [1]) was 6.4 µM; in the assay on HIV-1 NIT strain it was 1 to 5 µM. Moreover, the Anti-HIV-TAT activity result in the assay on HIV-TAT is listed as “High”.

`Clc1ccc2c(c1)C(c1ccc[nH]1)=NCC(N1CCNCC1)=N2` [1-piperazinyl, 7-chloro-2-(1-piperazinyl)-5-(1H-pyrrol-2-yl)-3H-1,4-benzodiazepine]: on HIV-1 RT (setting [1]), the IC50 was determined as 18 µM. Besides, the Anti-HIV-TAT activity result in the assay with HIV-TAT is recorded as “Low”.

Take `Clc1ccc2c(c1)C(c1ccc[nH]1)=NCC(N1CCCCC1)=N2` [1-piperidinyl, 7-chloro-2-(1-piperidinyl)-5-(1H-pyrrol-2-yl)-3H-1,4-benzodiazepine]: the IC50 at HIV-1 RT (setting [1]) was found to be 10.4 µM; with HIV-1 NIT strain, 2 µM. For the same compound, the Anti-HIV-TAT activity entry in the assay on HIV-TAT is given as “Medium/High”.

On to `Clc1ccc2c(c1)C(c1ccc[nH]1)=NCC(N1CCCC1)=N2` [1-pyrrolidinyl, 7-chloro-5-(1H-pyrrol-2-yl)-2-(1-pyrrolidinyl)-3H-1,4-benzodiazepine], for which the results for the IC50 on HIV-1 RT (setting [1]) and in the assay with HIV-1 NIT strain were 10.2 µM and 0.8 to 5 µM, respectively. In the assay on HIV-TAT, the Anti-HIV-TAT activity entry is “Medium/High”.

Consider `CCN(CC)C1=Nc2ccc(Cl)cc2C(c2ccc[nH]2)=NC1` [N(CH₂CH₃)₂, 7-chloro-N,N-diethyl-5-(1H-pyrrol-2-yl)-3H-1,4-benzodiazepin-2-amine], for which the Anti-HIV-TAT activity entry in the assay with HIV-TAT was “Low/Medium”.

In the case of `CN(C)C1=Nc2ccc(Cl)cc2C(c2ccc[nH]2)=NC1` [N(CH₃)₂, 7-chloro-N,N-dimethyl-5-(1H-pyrrol-2-yl)-3H-1,4-benzodiazepin-2-amine], the IC50 on HIV-1 RT is 7.3 µM; with HIV-1 NIT strain, 1 to 3 µM. In addition, the Anti-HIV-TAT activity entry in the assay on HIV-TAT is recorded as “Medium/High”.

Consider `Clc1ccc2c(c1)C(c1ccc[nH]1)=NCC(NC1CC1)=N2` [NH(cyclopropyl), 7-chloro-N-cyclopropyl-5-(1H-pyrrol-2-yl)-3H-1,4-benzodiazepin-2-amine], for which the IC50 at HIV-1 RT was determined as 5.4 µM; with HIV-1 NIT strain, 0.8 µM. For the same compound, in the assay on HIV-TAT, the Anti-HIV-TAT activity result was “Medium”.

In the case of `COC(CNC1=Nc2ccc(Cl)cc2C(c2ccc[nH]2)=NC1)OC` [NHCH₂CH(OCH₃)₂, 7-chloro-N-(2,2-dimethoxyethyl)-5-(1H-pyrrol-2-yl)-3H-1,4-benzodiazepin-2-amine], the IC50 with HIV-1 NIT strain is 1 to 5 µM. Further, in the assay on HIV-TAT, the Anti-HIV-TAT activity entry is “Medium/High”.

With `C=CCNC1=Nc2ccc(Cl)cc2C(c2ccc[nH]2)=NC1` [NHCH₂CH=CH₂, 7-chloro-N-(2-propenyl)-5-(1H-pyrrol-2-yl)-3H-1,4-benzodiazepin-2-amine], the IC50 at HIV-1 RT came out at 4.2 µM. Besides, the Anti-HIV-TAT activity result in the assay with HIV-TAT was “Low”.

Regarding `NCCNC1=Nc2ccc(Cl)cc2C(c2ccc[nH]2)=NC1` [NHCH₂CH₂NH₂, N-[7-chloro-5-(1H-pyrrol-2-yl)-3H-1,4-benzodiazepin-2-yl]-1,2-ethanediamine], in the assay on HIV-TAT, the Anti-HIV-TAT activity result was “Medium”.

With `OCCNC1=Nc2ccc(Cl)cc2C(c2ccc[nH]2)=NC1` [NHCH₂CH₂OH, 7-chloro-N-(2-hydroxyethyl)-5-(1H-pyrrol-2-yl)-3H-1,4-benzodiazepin-2-amine], the IC50 on HIV-1 RT was 8.9 µM; in the assay on HIV-1 NIT strain, 2 to 5 µM. Besides, in the assay with HIV-TAT, the Anti-HIV-TAT activity result is recorded as “Medium”.

In the case of `C#CCNC1=Nc2ccc(Cl)cc2C(c2ccc[nH]2)=NC1` [NHCH₂C≡CH, 7-chloro-N-(2-propynyl)-5-(1H-pyrrol-2-yl)-3H-1,4-benzodiazepin-2-amine], the IC50 at HIV-1 RT was 2 µM.

On to `Clc1ccc2c(c1)C(c1ccc[nH]1)=NCC(NCc1ccccc1)=N2` [NHCH₂Ph, 7-chloro-N-(phenylmethyl)-5-(1H-pyrrol-2-yl)-3H-1,4-benzodiazepin-2-amine], for which the results for the IC50 on HIV-1 RT and in the assay with HIV-1 NIT strain were 2.6 µM and 3 µM, respectively. Moreover, in the assay on HIV-TAT, the Anti-HIV-TAT activity entry is recorded as “Low/Medium”.

As to `NNC1=Nc2ccc(Cl)cc2C(c2ccc[nH]2)=NC1` [NHNH₂, 7-chloro-2-hydrazino-5-(1H-pyrrol-2-yl)-3H-1,4-benzodiazepine], the IC50 with HIV-1 NIT strain is 1 µM. Further, the Anti-HIV-TAT activity result in the assay with HIV-TAT is “High”.

`Clc1ccc2c(c1)C(c1ccc[nH]1)=NCC(Nc1ccccc1)=N2` [NHPh, 7-chloro-N-phenyl-5-(1H-pyrrol-2-yl)-3H-1,4-benzodiazepin-2-amine]: the IC50 at HIV-1 RT was 15.8 µM.

Consider `COC1=Nc2ccc(Cl)cc2C(c2ccc[nH]2)=NC1` [OCH₃, 7-chloro-2-methoxy-5-(1H-pyrrol-2-yl)-3H-1,4-benzodiazepine], for which the values for the IC50 on HIV-1 RT and in the assay on HIV-1 NIT strain were 1.5 µM and 1 µM, respectively. Further, in the assay with HIV-TAT, the Anti-HIV-TAT activity entry is on record as “Medium”.

As for `CSC1=Nc2ccc(Cl)cc2C(c2ccc[nH]2)=NC1` [SCH₃, 7-chloro-2-(methylthio)-5-(1H-pyrrol-2-yl)-3H-1,4-benzodiazepine], the IC50 was 1.6 µM at HIV-1 RT and 5 to 10 µM in the assay on HIV-1 NIT strain. The Anti-HIV-TAT activity result with HIV-TAT is reported as “Low/Medium”.

The record behind these values is patent EP0475231A1, “Benzodiazepines” (priority 1990, dated 1992).
